Source: PubChem BioAssay AID328 (DTP/NCI, 2004)
Several values for one entry are separate records, joined by “and”; a condition that tells them apart may be missing. Equal entries are not always repeated. Toxic doses and inconclusive results are not listed. How the source made its calls: active means survival T/C of 150% or more; inactive means T/C below 125% in these data.

System: BDF1 mice, P388 leukemia ip, median survival T/C
Assay: NCI In Vivo Anticancer Drug Screen. Data for tumor model P388 Leukemia (intraperitoneal) in B6D2F1 (BDF1) mice
Settings: endpoint: median survival time, higher = longer survival
Outline: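 T/C = treated-group survival ÷ vehicle-control survival; tumour transplanted into mice before dosing.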

Measured: T/C

CCCCCCCCCCCCCCCC(=O)OCC1OC(n2ccc(N)nc2=O)C(O)C1O (centres undefined)
active: dose: 1.5 mg/kg/injection, schedule: Q04DX003 (ip), vehicle: saline with Tween-80 152 % of control | dose: 2.0 mg/kg/injection, schedule: Q04DX003 (ip), vehicle: saline with Tween-80 154 % of control | dose: 3.0 mg/kg/injection, schedule: Q04DX003 (ip), vehicle: saline with Tween-80 181 % of control and 189 % of control | dose: 3.13 mg/kg/injection, schedule: Q01DX009 (ip), vehicle: saline with Tween-80 272 % of control and 215 % of control | dose: 6.25 mg/kg/injection, schedule: Q01DX009 (ip), vehicle: saline with Tween-80 250 % of control and 322 % of control | dose: 7.5 mg/kg/injection, schedule: Q01DX009 (ip), vehicle: saline with Tween-80 186 % of control | dose: 12.5 mg/kg/injection, schedule: Q01DX009 (ip), vehicle: saline with Tween-80 300 % of control and 333 % of control | dose: 15.0 mg/kg/injection, schedule: Q01DX009 (ip), vehicle: saline with Tween-80 190 % of control | dose: 22.0 mg/kg/injection, schedule: Q01DX009 (ip), vehicle: saline with Tween-80 272 % of control | dose: 25.0 mg/kg/injection, schedule: Q01DX009 (ip), vehicle: saline with Tween-80 266 % of control and 300 % of control | dose: 30.25 mg/kg/injection, schedule: Q01DX001 (ip), vehicle: Klucel (hydroxypropylcellulose) (HPC) 214 % of control | dose: 31.75 mg/kg/injection, schedule: Q04DX002 (ip), vehicle: Klucel (hydroxypropylcellulose) (HPC) 265 % of control and 204 % of control | dose: 40.0 mg/kg/injection, schedule: Q01DX001 (ip), vehicle: saline with Tween-80 171 % of control | dose: 44.0 mg/kg/injection, schedule: Q04DX003 (ip), vehicle: saline sonified 275 % of control | dose: 50.0 mg/kg/injection, schedule: Q04DX003 (ip), vehicle: saline with Tween-80 195 % of control | dose: 60.0 mg/kg/injection, schedule: Q01DX001 (ip), vehicle: saline with Tween-80 188 % of control | dose: 62.5 mg/kg/injection, schedule: Q04DX002 (ip), vehicle: Klucel (hydroxypropylcellulose) (HPC) 241 % of control and 265 % of control | dose: 66.0 mg/kg/injection, schedule: Q04DX003 (ip), vehicle: saline sonified 300 % of control | dose: 90.0 mg/kg/injection, schedule: Q01DX001 (ip), vehicle: saline with Tween-80 197 % of control | dose: 90.0 mg/kg/injection, schedule: Q04DX003 (ip), vehicle: saline with Tween-80 231 % of control (2×) and 217 % of control | dose: 100.0 mg/kg/injection, schedule: Q01DX001 (ip), vehicle: saline 206 % of control | dose: 100.0 mg/kg/injection, schedule: Q04DX003 (ip), vehicle: saline sonified 300 % of control | dose: 100.0 mg/kg/injection, schedule: Q04DX003 (ip), vehicle: saline with Tween-80 300 % of control and 168 % of control | dose: 125.0 mg/kg/injection, schedule: Q01DX001 (ip), vehicle: saline with Tween-80 392 % of control | dose: 125.0 mg/kg/injection, schedule: Q04DX002 (ip), vehicle: Klucel (hydroxypropylcellulose) (HPC) 265 % of control | dose: 150.0 mg/kg/injection, schedule: Q01DX001 (ip), vehicle: saline 318 % of control | dose: 200.0 mg/kg/injection, schedule: Q01DX001 (ip), vehicle: saline with Tween-80 239 % of control and 196 % of control and 214 % of control
inactive: dose: 0.38 mg/kg/injection, schedule: Q04DX003 (ip), vehicle: saline with Tween-80 111 % of control | dose: 0.88 mg/kg/injection, schedule: Q04DX003 (ip), vehicle: saline with Tween-80 109 % of control | dose: 25.0 mg/kg/injection, schedule: Q04DX003 (ip), vehicle: saline with Tween-80 109 % of control | dose: 30.0 mg/kg/injection, schedule: Q01DX009 (ip), vehicle: saline with Tween-80 104 % of control | dose: 50.0 mg/kg/injection, schedule: Q01DX009 (ip), vehicle: saline with Tween-80 90 % of control | dose: 150.0 mg/kg/injection, schedule: Q04DX003 (ip), vehicle: saline sonified 120 % of control | dose: 200.0 mg/kg/injection, schedule: Q04DX003 (ip), vehicle: saline with Tween-80 95 % of control and 120 % of control

COc1ccc(CC2C(=O)NC(C)C(=O)N(C)C3C(=O)N(C)C(Cc4ccc(O)c(c4)Oc4ccc(cc4)C3O)C(=O)NC(C)C(=O)NC(C)C(=O)N2C)cc1 (centres undefined)
inactive: dose: 10.0 micrograms/kg/injection, schedule: Q01DX009 (ip), vehicle: alcohol 110 % of control
active: dose: 0.11 mg/kg/injection, schedule: Q01DX009 (ip), vehicle: alcohol 150 % of control | dose: 0.11 mg/kg/injection, schedule: Q01DX009 (ip), vehicle: saline 164 % of control | dose: 0.16 mg/kg/injection, schedule: Q01DX009 (ip), vehicle: alcohol 158 % of control | dose: 0.25 mg/kg/injection, schedule: Q01DX009 (ip), vehicle: alcohol 188 % of control | dose: 1.0 mg/kg/injection, schedule: Q01DX009 (ip), vehicle: distilled water + Tween-80 173 % of control | dose: 518.0 micrograms/kg/injection, schedule: Q04DX003 (ip), vehicle: other 163 % of control | dose: 864.0 micrograms/kg/injection, schedule: Q04DX003 (ip), vehicle: other 184 % of control | dose: 1440.0 micrograms/kg/injection, schedule: Q04DX003 (ip), vehicle: other 175 % of control | dose: 2400.0 micrograms/kg/injection, schedule: Q04DX003 (ip), vehicle: other 181 % of control
